{
  "source": "patent US20240277708A1",
  "about": "“Use of [1,2,4] Triazolo [4,3-B] Pyridazine Derivative For Preventing and Treating Senescence and Senescence-Related Diseases” (The Eighth Affiliated Hospital, Sun Yat-Sen University, priority 2023, published 2024)",
  "key": {"MRC5 cells": {"test_system": "MRC5 cells", "assay": "VP16-induced cellular senescence, SA-β-gal staining, MRC5 cells", "type": "cell-based, Human", "conditions": "C1632 120 μM, VP16 40 μM for 4-7 days, FIG. 1A, 1C", "protocol": "MRC5 and BJ cells were cultured in DMEM low-glucose medium containing 10% FBS. The cells were passaged or plated at a ratio of 1:3.0.5×10^5 cells were plated in 12-well plates and in the next day treated with VP16 at a final concentration of 40 μM for 4-7 days to induce cellular senescence. A cellular senescence model was constructed. While inducing cellular senescence, C1632 with a final concentration of 120 μM is added. The effect of C1632 on the senescence of BJ and MRC5 cells was detected by SA-β-gal staining, and the effect of C1632 on cellular senescence was studied."}, "TERC−/− G4 mice": {"test_system": "TERC−/− G4 mice", "assay": "TERC−/− G4 senescence mouse model: survival and lung immunohistochemistry", "type": "in vivo", "protocol": "Paraffin sections were melted at 65° C. for 1 h, rehydrated by rinsing in xylene for 10 min, xylene for 10 min, absolute ethanol for 3 min, 95% ethanol for 3 min, 85% ethanol for 3 min, 70% ethanol for 3 min and water, followed by two rinses with PBS for 5 min each. The sections were blocked with 3% hydrogen peroxide (in methanol) for 10 min, and then washed twice with PBS for 5 min each time. Then the sections were put into antigen retrieval buffer (pH 6.0) and heat by microwave for 10 min to retrieve antigen, then, slowly cool the solution at room temperature for 1 h, and wash the solution twice with PBS for 5 min each time. The sections were blocked with 10% goat serum for 1 h, incubated overnight with the primary antibodies at 4° C. in the dark, washed twice with PBS for 5 min each time, incubated with the secondary antibodies at room temperature in the dark for 30 min, and washed twice with PBS for 5 min each time. The sections were subjected to DAB color development and hematoxylin staining, and then rinsed in tap water for 8 min to produce a blue color. The sections were dehydrated with gradient alcohol, dried, and sealed with neutral gum.\n1, TERC−/−G4 senescence mouse model: Mice had very long telomere length, and it took 3-6 generations of breeding to develop a premature senescence phenotype after telomerase knockout. TERC+/−mice were screened for TERC+/−mice as breeding protection. The first generation of TERC−/− mice was G1 mice. G1 mice were mated with each other to give birth to G2 mice, which continued to reproduce until G4. At this time, mice had very short telomeres and could develop senescence phenotype at 3-4 months of age.\n2, Genotype identification of TERC knockout mice: Small segments of tails were cut from the identified mice and digested in 10 mM Tris-HCl 0.5% SDS 1 mM EDTA pH8.0 buffer containing 0.4 mg/mL proteinase K at 65° C. for 2 hours, and then 0.5 μL digestive solution was used as a template for PCR amplification. PCR products which were 250 bp indicated wild-type and 180 bp indicated TERC knockdown.\n3, One-month-old G4 mice were given 68 mg/kg C1632 once a week, with 10 mice in each group.\n4, Since senescent cells were mainly eliminated by immune cells in vivo, in addition to inhibiting the generation of senescent cells, the inventors also examined the effect of C1632 on the immune microenvironment of senescent lung tissue."}, "C57BL/6 mice": {"test_system": "C57BL/6 mice", "assay": "Safety profile in IPF model and control mice: body weight and routine blood test", "type": "in vivo", "protocol": "In order to test the safety profile of C1632, the IPF model C57BL/6 mice and the control mice were intraperitoneally injected with 68 mg/kg C1632 three times a week and weighed, respectively. At the end of the experiment, the whole blood was a collected for routine blood test. […] In addition, the routine blood test results of mice in each group are mostly within the reference interval."}, "[1]": {"conditions": "stated for a known small molecule drug, no test described; cited from earlier work"}, "[2]": {"conditions": "normal mice, 68 mg/kg i.p. three times a week"}},
  "data": [
    {"smiles": "CC(=O)N(C)c1cccc(-c2ccc3nnc(C)n3n2)c1", "note": "[C1632]", "values": [
      {"measurement": "VP16-induced senescence (β-gal-positive cell rate) in MRC5 cells", "setting": "MRC5 cells", "value": "inhibits VP16-induced senescence"},
      {"measurement": "Life span of TERC−/− G4 mice", "setting": "TERC−/− G4 mice; 68 mg/kg once a week, survival curves FIG. 2A", "value": "greatly extended the life span"},
      {"measurement": "Mice still surviving when all control mice had died", "setting": "TERC−/− G4 mice; TERC−/− G4 mice, 68 mg/kg once a week from one month of age, 3 and a half months after the experiment, FIG. 2A", "value": 80, "unit": "%"},
      {"measurement": "Immunosuppressive T cell marker FOXP3 in senescent lung tissue (immunohistochemistry)", "setting": "TERC−/− G4 mice; lung tissues from senescence mice, FIG. 3", "value": "reduces the immunosuppressive T cell marker FOXP3"},
      {"measurement": "Lung tissue senescence (expression of senescence markers p16 and p21, immunohistochemistry)", "setting": "TERC−/− G4 mice; lungs of TERC−/− G4 mice, 68 mg/kg once a week, FIG. 2B", "value": "significantly inhibited lung tissue senescence"},
      {"measurement": "Routine blood tests overall", "setting": "C57BL/6 mice; IPF mice, 68 mg/kg i.p. three times a week, FIG. 11B to 11S", "value": "does not cause deterioration"},
      {"measurement": "Body weight compared with the corresponding saline group", "setting": "C57BL/6 mice; IPF model and control mice, 68 mg/kg intraperitoneally three times a week, FIG. 11A", "value": "does not significantly change the body weight"},
      {"measurement": "Mean platelet volume (MPV), model group", "setting": "C57BL/6 mice; IPF model mice, 68 mg/kg i.p. three times a week", "value": "no significant effect"},
      {"measurement": "PDW, fibrotic mice", "setting": "C57BL/6 mice; fibrotic (IPF) mice, 68 mg/kg i.p. three times a week", "value": "no significant effect"},
      {"measurement": "Mean platelet volume (MPV), normal mice", "setting": "C57BL/6 mice; [2]", "value": "significantly increase"},
      {"measurement": "PDW, normal mice", "setting": "C57BL/6 mice; [2]", "value": "significantly inhibits"},
      {"measurement": "Solubility", "setting": "[1]", "value": "can be dissolved in water, ethanol or DMSO"},
      {"measurement": "Thermal stability", "setting": "[1]", "value": "good thermal stability"}
    ]}
  ]
}
